# Calls of active or inactive are those of the source. The rule behind the calls is not given here.
# Legend:
# HBZY-1 [1] = assay: Cytoprotection activity against H2O2-induced cell death in rat HBZY-1 cells assessed as cell viability at 6 uM preincubated with compound for 2 hrs followed by H2O2 addition and measured after 24 hrs by MTT assay (reference value: 62.1%); type: functional; conditions: read-out: Activity
# HBZY-1 [2] = assay: Cytotoxicity against rat HBZY-1 cells assessed as reduction in cell viability after 2 hrs by MTT assay; type: cell-based; conditions: HBZY-1, 2 h
# [3] = biological target: T1, Nuclear factor erythroid 2-related factor 2 (Homo sapiens) (UniProt Q16236); assay: Activation of Nrf2 (unknown origin) expressed in HEK293 cells co-transfected with ARE luciferase reporter plasmid at 20 uM after 16 hrs by dual luciferase reporter gene assay; type: cell-based
# T1 sequence (whole entry): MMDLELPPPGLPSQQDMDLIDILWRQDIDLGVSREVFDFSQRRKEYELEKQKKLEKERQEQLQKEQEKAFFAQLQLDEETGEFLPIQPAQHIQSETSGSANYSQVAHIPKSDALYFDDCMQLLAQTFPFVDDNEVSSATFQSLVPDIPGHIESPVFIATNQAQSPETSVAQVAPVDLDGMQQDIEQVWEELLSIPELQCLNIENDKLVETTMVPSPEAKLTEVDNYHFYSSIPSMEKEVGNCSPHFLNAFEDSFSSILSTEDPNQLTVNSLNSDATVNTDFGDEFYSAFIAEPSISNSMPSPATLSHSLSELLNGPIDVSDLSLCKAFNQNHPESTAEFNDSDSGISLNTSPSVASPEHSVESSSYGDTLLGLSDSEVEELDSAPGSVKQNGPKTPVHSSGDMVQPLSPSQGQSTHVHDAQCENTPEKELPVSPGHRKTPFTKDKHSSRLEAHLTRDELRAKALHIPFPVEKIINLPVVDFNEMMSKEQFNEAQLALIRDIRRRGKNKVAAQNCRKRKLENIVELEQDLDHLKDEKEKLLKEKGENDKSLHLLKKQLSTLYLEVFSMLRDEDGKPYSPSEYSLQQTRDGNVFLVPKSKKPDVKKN
Compound,viability at 6 µM (HBZY-1 [1]),IC50 (HBZY-1 [2]),Activity [3]
COc1ccc(NC(=O)/C(C#N)=C/c2ccccc2C(F)(F)F)cc1OC,78.2%,> 200 µM,–
COc1ccccc1NC(=O)/C=C/c1ccccc1C(F)(F)F,65.6 to 96.4%,> 200 µM,–
COc1cc(NC(=O)/C=C/c2ccccc2C(F)(F)F)cc(OC)c1OC,65.6 to 96.4%,> 200 µM,–
COc1ccccc1NC(=O)/C(C#N)=C/c1cccc(C)c1,65.6 to 96.4%,> 200 µM,–
COc1ccccc1C(=O)/C=C/c1ccccc1C(F)(F)F,80.3%,–,–
C[S+]([O-])CCCCN=C=S (stereo not drawn) [SULFORAPHANE],80%,–,–
COc1ccc(NC(=O)/C(C#N)=C/c2ccccc2C(F)(F)F)cc1,82.4%,> 200 µM,–
COc1ccc(CNC(=O)/C(C#N)=C/c2ccccc2C(F)(F)F)cc1,80.8%,> 200 µM,–
COc1ccccc1NC(=O)/C(C#N)=C/c1ccc(OC)c(OC)c1,78.4%,> 200 µM,–
COc1ccc(CCNC(=O)/C(C#N)=C/c2ccccc2C(F)(F)F)cc1OC,65.6 to 96.4%,> 200 µM,–
COc1ccccc1NC(=O)/C(C#N)=C/c1cc(OC)c(OC)c(OC)c1,78.1%,> 200 µM,–
CC(C)(C)c1cc(O)ccc1O,–,–,Active
COc1ccc(NC(=O)/C=C/c2ccccc2C(F)(F)F)cc1OC,65.6 to 96.4%,> 200 µM,–

# Reference: ChEMBL document CHEMBL4406808, “Synthesis and assessment of phenylacrylamide derivatives as potential anti-oxidant and anti-inflammatory agents” (Eur J Med Chem, 2019)
